Legend:
[1] = target: SpNanA (Streptococcus pneumoniae, UniProt P62575); test: Sialidase inhibition assay (Example 7); format: biochemical; details: for Percentage inhibition (%) against SpNanA: 1 mM of each inhibitor, substrate Neu5Acα2-3GalβpNP 0.3 mM, pH 6.0; for inhibition at 1000 µM: pH 6, read-out: Percentage inhibition (%) against SpNanA
[2] = target: T1, SpNanB (Streptococcus pneumoniae serotype 4, UniProt Q54727, E68D/K536E/K577E/N393D/S59P); test: Sialidase inhibition assay (Example 7); format: biochemical; details: for Percentage inhibition (%) against SpNanB: 1 mM of each inhibitor, substrate Neu5Acα2-3GalβpNP 0.3 mM, pH 6.0; for inhibition at 1000 µM: pH 6, read-out: Percentage inhibition (%) against SpNanB
T1 sequence (Q54727 30-697 S59P/E68D/N393D/K536E/K577E): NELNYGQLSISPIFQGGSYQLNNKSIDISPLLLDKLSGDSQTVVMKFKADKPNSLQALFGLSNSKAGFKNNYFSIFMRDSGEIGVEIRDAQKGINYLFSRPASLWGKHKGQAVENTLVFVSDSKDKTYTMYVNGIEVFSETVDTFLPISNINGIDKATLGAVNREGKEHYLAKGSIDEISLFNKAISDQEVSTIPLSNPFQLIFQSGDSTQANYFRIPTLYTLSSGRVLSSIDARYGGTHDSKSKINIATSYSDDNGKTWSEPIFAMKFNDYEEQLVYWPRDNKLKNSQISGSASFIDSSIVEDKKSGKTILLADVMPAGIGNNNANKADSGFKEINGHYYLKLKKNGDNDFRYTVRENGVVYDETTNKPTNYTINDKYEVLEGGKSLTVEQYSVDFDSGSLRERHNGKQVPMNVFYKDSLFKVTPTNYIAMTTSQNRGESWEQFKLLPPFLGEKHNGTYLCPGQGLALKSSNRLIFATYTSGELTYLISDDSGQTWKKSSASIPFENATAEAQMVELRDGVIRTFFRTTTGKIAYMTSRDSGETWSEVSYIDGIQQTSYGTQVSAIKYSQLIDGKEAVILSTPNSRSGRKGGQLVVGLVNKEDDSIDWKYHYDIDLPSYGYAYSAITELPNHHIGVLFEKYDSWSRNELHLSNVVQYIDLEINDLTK

[3] = target: T2, AuSialidase (Paenarthrobacter ureafaciens, UniProt Q5W7Q2); test: Sialidase inhibition assay (Example 7); format: biochemical, Arthrobacter ureafaciens; details: for inhibition at 1000 µM: read-out: Percentage inhibition (%) against AuSialidase
T2 sequence (Q5W7Q2 39-990): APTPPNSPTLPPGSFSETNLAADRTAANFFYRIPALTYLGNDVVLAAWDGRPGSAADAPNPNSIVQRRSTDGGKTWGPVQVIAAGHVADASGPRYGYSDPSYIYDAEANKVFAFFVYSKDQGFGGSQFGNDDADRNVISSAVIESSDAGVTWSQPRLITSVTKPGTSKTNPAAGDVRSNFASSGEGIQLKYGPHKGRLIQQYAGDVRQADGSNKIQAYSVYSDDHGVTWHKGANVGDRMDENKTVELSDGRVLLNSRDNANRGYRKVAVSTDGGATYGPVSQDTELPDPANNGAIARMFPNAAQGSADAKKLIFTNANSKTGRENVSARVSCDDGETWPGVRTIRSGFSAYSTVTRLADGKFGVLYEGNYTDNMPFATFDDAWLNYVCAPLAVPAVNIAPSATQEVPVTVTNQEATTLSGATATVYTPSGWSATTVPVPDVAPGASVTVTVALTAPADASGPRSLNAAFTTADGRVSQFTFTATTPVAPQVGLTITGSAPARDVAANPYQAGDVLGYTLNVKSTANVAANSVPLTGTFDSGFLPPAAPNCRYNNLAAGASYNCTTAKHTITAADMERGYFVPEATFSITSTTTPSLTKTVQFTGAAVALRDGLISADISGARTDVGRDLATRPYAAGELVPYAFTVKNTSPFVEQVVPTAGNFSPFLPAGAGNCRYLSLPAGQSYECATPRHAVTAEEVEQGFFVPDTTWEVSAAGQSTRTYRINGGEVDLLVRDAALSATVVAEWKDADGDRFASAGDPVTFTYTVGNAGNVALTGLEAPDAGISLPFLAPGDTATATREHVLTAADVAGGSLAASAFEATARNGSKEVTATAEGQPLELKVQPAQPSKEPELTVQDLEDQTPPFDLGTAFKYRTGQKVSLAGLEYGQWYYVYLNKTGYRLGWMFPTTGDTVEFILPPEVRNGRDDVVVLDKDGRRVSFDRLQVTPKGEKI

[4] = tested on: CpNanI; format: biochemical, Clostridium perfringens; details: 1 mM of each inhibitor; substrate Neu5Acα2-3GalβpNP 0.3 mM; pH 5.0
[5] = target: VcSialidase (Vibrio cholerae serotype O1, UniProt P0C6E9); test: Sialidase inhibition assay (Example 7); format: biochemical; details: for inhibition at 1000 µM: pH 5.5, read-out: Percentage inhibition (%) against VcSialidase
Chain of VcSialidase (P0C6E9 25-781): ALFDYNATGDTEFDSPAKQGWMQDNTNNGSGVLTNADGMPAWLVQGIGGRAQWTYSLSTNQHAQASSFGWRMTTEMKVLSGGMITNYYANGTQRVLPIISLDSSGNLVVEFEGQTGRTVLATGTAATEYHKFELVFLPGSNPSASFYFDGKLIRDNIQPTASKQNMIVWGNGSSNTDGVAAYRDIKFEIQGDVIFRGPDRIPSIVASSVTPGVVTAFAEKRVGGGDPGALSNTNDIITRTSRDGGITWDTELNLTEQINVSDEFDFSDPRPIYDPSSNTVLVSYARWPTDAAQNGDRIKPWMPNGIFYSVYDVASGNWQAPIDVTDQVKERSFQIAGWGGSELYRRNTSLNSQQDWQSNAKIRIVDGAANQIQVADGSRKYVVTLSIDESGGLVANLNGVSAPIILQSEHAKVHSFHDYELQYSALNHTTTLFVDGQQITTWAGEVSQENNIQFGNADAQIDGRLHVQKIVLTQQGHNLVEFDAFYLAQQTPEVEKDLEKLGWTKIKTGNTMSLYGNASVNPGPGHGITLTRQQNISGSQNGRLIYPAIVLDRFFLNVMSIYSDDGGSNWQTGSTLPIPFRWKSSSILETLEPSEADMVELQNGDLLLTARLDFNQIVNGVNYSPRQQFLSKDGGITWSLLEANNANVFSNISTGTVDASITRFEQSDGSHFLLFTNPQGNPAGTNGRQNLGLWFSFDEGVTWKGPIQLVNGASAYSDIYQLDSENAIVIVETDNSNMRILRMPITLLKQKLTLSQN

[6] = target: PmST1 (Pasteurella multocida, UniProt Q15KI8); test: Sialidase inhibition assay (Example 7); format: biochemical; details: 1 mM of each inhibitor; substrate Neu5Acα2-3GalβpNP 0.3 mM; CMP 0.4 mM; pH 5.5; read-out: Percentage inhibition (%) against PmST1
Chain of PmST1 (Q15KI8 entry or part of it): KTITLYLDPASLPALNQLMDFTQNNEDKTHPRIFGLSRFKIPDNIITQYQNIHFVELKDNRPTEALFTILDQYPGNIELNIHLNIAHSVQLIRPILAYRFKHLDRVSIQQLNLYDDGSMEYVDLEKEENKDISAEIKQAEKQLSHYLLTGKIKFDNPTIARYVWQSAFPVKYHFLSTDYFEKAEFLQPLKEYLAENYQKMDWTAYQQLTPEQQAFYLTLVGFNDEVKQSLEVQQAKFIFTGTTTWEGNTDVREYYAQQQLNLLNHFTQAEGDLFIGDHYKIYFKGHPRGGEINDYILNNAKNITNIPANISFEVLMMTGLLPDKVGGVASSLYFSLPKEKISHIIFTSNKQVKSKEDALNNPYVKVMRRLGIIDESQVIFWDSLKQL

[7] = target: BiNanH2 (Bifidobacterium longum subsp. infantis, UniProt A0ACD7UU12); test: Sialidase inhibition assay (Example 7); format: biochemical; details: pH 5, read-out: Percentage inhibition (%) against BiNanH2
Chain of BiNanH2 (A0ACD7UU12 entry or part of it): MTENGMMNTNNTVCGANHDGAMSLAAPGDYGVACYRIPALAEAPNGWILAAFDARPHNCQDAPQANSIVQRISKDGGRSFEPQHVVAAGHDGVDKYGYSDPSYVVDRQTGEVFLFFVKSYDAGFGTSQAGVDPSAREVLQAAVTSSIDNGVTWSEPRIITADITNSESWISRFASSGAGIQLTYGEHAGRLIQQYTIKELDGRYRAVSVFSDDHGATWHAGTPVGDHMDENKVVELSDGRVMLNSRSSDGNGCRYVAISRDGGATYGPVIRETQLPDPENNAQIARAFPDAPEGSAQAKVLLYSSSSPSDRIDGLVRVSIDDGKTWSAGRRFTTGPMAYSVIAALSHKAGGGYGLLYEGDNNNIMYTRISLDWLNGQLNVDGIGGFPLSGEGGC

[8] = target: hNEU2 (Homo sapiens, UniProt Q9Y3R4); test: Sialidase inhibition assay (Example 7); format: biochemical; details: 1 mM of each inhibitor; substrate Neu5Acα2-3GalβpNP 0.3 mM; pH 5.0; read-out: Percentage inhibition (%) against hNEU2
Chain of hNEU2 (Q9Y3R4 whole entry): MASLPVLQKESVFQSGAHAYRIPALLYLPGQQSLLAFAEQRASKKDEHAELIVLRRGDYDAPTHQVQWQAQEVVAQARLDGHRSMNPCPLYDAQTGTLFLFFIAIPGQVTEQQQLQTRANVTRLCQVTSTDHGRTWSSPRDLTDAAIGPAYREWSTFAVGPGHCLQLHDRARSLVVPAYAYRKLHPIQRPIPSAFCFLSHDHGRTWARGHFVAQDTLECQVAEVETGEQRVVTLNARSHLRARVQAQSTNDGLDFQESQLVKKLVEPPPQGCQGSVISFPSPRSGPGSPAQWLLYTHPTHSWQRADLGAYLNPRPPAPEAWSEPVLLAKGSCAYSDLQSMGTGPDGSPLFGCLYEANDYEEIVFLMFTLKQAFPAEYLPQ

[9] = target: T3, SpNanC (Streptococcus pneumoniae, UniProt A0A0H2UQE4); test: Sialidase inhibition assay (Example 7); details: for inhibition at 1000 µM: pH 6.5, read-out: Percentage inhibition (%) against SpNanC
T3 sequence (A0A0H2UQE4 entry or part of it): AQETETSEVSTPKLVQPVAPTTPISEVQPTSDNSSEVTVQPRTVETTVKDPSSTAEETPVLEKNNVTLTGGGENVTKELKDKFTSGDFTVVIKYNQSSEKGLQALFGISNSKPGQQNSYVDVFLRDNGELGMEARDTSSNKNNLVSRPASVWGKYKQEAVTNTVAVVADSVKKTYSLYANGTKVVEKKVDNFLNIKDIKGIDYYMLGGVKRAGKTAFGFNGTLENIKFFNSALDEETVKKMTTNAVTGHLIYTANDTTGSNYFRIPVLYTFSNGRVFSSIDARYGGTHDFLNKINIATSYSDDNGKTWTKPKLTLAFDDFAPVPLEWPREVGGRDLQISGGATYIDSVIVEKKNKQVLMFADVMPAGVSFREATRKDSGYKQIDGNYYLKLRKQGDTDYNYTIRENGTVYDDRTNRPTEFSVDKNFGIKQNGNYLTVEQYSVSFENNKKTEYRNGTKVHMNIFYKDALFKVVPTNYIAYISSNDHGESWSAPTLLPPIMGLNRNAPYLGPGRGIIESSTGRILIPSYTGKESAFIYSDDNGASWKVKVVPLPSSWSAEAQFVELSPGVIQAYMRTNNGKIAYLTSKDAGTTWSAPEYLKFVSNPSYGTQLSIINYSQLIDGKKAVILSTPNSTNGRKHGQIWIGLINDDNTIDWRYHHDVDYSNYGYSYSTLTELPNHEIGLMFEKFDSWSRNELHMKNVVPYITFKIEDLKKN

[10] = target: T3, SpNanC; details: Tris-HCl pH 7.0, 10 min at 37° C.
[11] = target: T1, SpNanB; test: Substrate specificity of SpNanB; details: pNP-tagged α2-3-linked sialosides
[12] = tested on: SpNanC; test: Substrate specificity assay of SpNanC; details: sialoside substrate 0.3 mM; SpNanC (2 μg); Tris-HCl pH 7.0; 30 min, 37° C.
[13] = target: T1, SpNanB; test: Hydrolysis of 2,7-anhydro-sialic acids by SpNanB; details: SpNanB (1.0 mg/mL); 37° C. for 24 h
[14] = tested on: SpNanC; details: previously reported recombinant SpNanC; cited from earlier work
[15] = 1 mM of each inhibitor, substrate Neu5Acα2-3GalβpNP 0.3 mM, pH 5.5

Chain of SpNanA (P62575 54-1006): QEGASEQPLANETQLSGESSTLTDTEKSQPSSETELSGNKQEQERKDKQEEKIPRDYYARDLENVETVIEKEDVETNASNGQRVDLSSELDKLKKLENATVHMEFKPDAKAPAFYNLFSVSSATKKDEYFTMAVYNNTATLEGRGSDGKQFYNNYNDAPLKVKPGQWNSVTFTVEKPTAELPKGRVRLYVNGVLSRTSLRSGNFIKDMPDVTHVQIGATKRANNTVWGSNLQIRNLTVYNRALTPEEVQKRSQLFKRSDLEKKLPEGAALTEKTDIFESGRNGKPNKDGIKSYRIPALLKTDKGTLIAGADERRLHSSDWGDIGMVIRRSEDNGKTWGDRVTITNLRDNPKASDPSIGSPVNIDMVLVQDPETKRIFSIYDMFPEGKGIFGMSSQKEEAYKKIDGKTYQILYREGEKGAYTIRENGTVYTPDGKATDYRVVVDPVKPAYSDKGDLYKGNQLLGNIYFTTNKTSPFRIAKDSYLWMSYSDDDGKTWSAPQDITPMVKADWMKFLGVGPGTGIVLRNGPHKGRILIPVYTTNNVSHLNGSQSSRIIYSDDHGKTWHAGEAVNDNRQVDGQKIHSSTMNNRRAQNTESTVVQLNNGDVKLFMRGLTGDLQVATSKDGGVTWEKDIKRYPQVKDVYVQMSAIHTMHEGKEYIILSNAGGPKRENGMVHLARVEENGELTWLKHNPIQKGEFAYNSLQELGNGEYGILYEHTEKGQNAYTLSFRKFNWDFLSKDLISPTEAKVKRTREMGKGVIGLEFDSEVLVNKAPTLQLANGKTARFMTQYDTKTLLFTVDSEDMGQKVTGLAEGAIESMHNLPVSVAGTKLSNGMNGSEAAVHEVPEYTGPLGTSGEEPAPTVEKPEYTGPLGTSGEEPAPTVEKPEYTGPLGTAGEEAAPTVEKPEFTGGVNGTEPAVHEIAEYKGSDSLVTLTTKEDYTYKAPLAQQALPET

| SMILES | Percentage inhibition (%) against SpNanA [1] | inhibition at 1000 µM [1] [%] | IC50 [2] [µM] | Percentage inhibition (%) against SpNanB [2] | inhibition at 1000 µM [2] [%] | inhibition at 1000 µM [3, 15] [%] | Percentage inhibition (%) against CpNanI [4] [%] | IC50 [5] [µM] | inhibition at 1000 µM [5] [%] | inhibition at 1000 µM [6] [%] | inhibition at 1000 µM [7] [%] | inhibition at 1000 µM [8] [%] | inhibition at 1000 µM [9] [%] | further results |
| --- | --- | --- | --- | --- | --- | --- | --- | --- | --- | --- | --- | --- | --- | --- |
| O=C(N[C@H]1[C@H]2O[C@@](C(=O)O)(C[C@@H]1O)O[C@@H]2[C@H](O)CO)C(F)(F)F [2-2, 2,7-Anhydro-3,5-dideoxy-5-trifluoroacetamido-α-D-glycero-D-galacto-non-2-ulopyranosonic acid] | moderate inhibitory activity | 83.8 ± 0.3 | 250 to 500 | weak inhibition | 68.2 ± 2.6 | 85.1 ± 0.3 | 44.1 ± 1.0 | 500 to 1000 | 62.1 ± 0.6 | 11 ± 2.7 | 3.8 ± 2.6 | 2.5 ± 2.1 | 4.4 ± 2 | Percentage inhibition (%) against AuSialidase [3, 15]: moderate inhibitory activity; IC50 ([3]; read-out: IC50 against AuSialidase): 225 ± 34 µM; Percentage inhibition (%) against VcSialidase [5, 15]: weak inhibition |
| CC(=O)N[C@H]1[C@H]([C@H](O)[C@H](O)CO)OC(O[C@H]2[C@@H](O)[C@@H](CO)O[C@@H](Oc3ccc([N+](=O)[O-])cc3)[C@@H]2O)(C(=O)O)C[C@@H]1O (some centres unmarked) [Neu5Acα2-3GalβpNP] | – | – | – | – | – | – | – | – | – | – | – | – | – | Km [10]: 2700 ± 500 µM; kcat [10]: 406.8 ± 39.0 s⁻¹; Recognition by SpNanB (substrate specificity) [11]: + (+ represents >80% conversion); Percentage conversion (%) by SpNanC [12]: 85.1 ± 2.4% |
| CC(=O)N[C@H]1[C@H]2O[C@@](C(=O)O)(C[C@@H]1O)O[C@@H]2[C@H](O)CO [2-1, 5-Acetamido-2,7-anhydro-3,5-dideoxy-α-D-glycero-D-galacto-non-2-ulopyranosonic acid] | – | 36.4 ± 0.1 | – | – | 30 ± 1.7 | 49.4 ± 1.3 | 26.7 ± 3.7 | – | 22.7 ± 1.2 | 10.2 ± 2.8 | 6.6 ± 1.8 | 4.6 ± 1.1 | 3 ± 1.9 | Conversion to Neu5Ac by SpNanB, estimated yield based on TLC [13]: 80% |
| O=C(O)[C@@]12C[C@@H](O)[C@@H](NC3CCCCC3)C(O1)[C@@H]([C@H](O)CO)O2 [2-4] | weak inhibition | 61.2 ± 0.6 | 180 ± 23 | effective inhibitory activity | 86.6 ± 0.3 | 16.8 ± 2.4 | 13.6 ± 0.1 | > 1000 | 1.2 ± 0.7 | 12.3 ± 1.9 | 1.2 ± 0.9 | 3.6 ± 0.1 | 94.2 ± 0.1 | IC50 [1]: 500 to 1000 µM; Percentage inhibition (%) against SpNanC ([9]; 1 mM of each inhibitor, substrate Neu5Acα2-3GalβpNP 0.3 mM, pH 6.5): showed inhibition |
| CC(=O)N[C@H]1[C@H]([C@H](O)[C@H](O)CO)O[C@@](O[C@H]2[C@@H](O)[C@@H](CO)O[C@@H](O[C@H]3[C@H](O)[C@@H](O)C(O)O[C@@H]3CO)[C@@H]2O)(C(=O)O)C[C@@H]1O (stereo partly drawn) [α2-3-sialyllactose] | – | – | – | – | – | – | – | – | – | – | – | – | – | Km [14]: 1080 ± 350 µM; kcat [14]: 0.313 ± 0.052 s⁻¹ |
| N[C@H]1[C@H]2O[C@@](C(=O)O)(C[C@@H]1O)O[C@@H]2[C@H](O)CO [2-3, 5-Amino-2,7-anhydro-3,5-dideoxy-α-D-glycero-D-galacto-non-2-ulopyranosonic acid] | – | 19.3 ± 4.2 | – | – | 11.7 ± 2.6 | 1.3 ± 2.2 | 10.1 ± 5.7 | – | 1.3 ± 2 | 13.8 ± 3.3 | 3.2 ± 3.2 | 1.4 ± 2.4 | 14.9 ± 3 | – |

Source: patent US11325936B2, “Sialidase inhibitors and preparation thereof” (The Regents of the University of California, priority 2017, dated 2022)
